Measurements: ChEMBL document CHEMBL1201862, “PubChem BioAssay data set” (2004)
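Results reflect a 48-hour exposure of cells in 96-well plates to compound at five concentrations. Abbreviation: GI50, concentration required for 50% inhibition of growth.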 Active and inactive are the calls of the source. Rule as the data show it: active = GI50 up to about 1.1 µM and inactive = higher.

How the values were obtained:
Assay in all cases: NCI-60 cell line screen, 48 h
A498 = tested on: A498
A549 = tested on: A549
ACHN = tested on: ACHN
BT-549 = tested on: BT-549
CAKI-1 = tested on: CAKI-1
CCRF-CEM = tested on: CCRF-CEM
COLO 205 = tested on: COLO 205
DU-145 = tested on: DU-145
EKVX = tested on: EKVX
HCC 2998 = tested on: HCC 2998
HOP-62 = tested on: HOP-62
HOP-92 = tested on: HOP-92
HT-29 = tested on: HT-29
Hs-578T = tested on: Hs-578T
IGROV-1 = tested on: IGROV-1
K562 = tested on: K562
KM12 = tested on: KM12
LOX IMVI = tested on: LOX IMVI
M14 = tested on: M14
MCF7 = tested on: MCF7
MDA-MB-231 = tested on: MDA-MB-231
MDA-MB-435 = tested on: MDA-MB-435
MDA-N = tested on: MDA-N
MOLT-4 = tested on: MOLT-4
Malme-3M = tested on: Malme-3M
NCI-H226 = tested on: NCI-H226
NCI-H23 = tested on: NCI-H23
NCI-H460 = tested on: NCI-H460
NCI-H522 = tested on: NCI-H522
NCI/ADR-RES = tested on: NCI/ADR-RES
OVCAR-3 = tested on: OVCAR-3
OVCAR-5 = tested on: OVCAR-5
OVCAR-8 = tested on: OVCAR-8
PC-3 = tested on: PC-3
RPMI-8226 = tested on: RPMI-8226
RXF 393 = tested on: RXF 393
SF-268 = tested on: SF-268
SF-539 = tested on: SF-539
SK-MEL-28 = tested on: SK-MEL-28
SK-MEL-2 = tested on: SK-MEL-2
SK-MEL-5 = tested on: SK-MEL-5
SN12C = tested on: SN12C
SNB-19 = tested on: SNB-19
SNB-75 = tested on: SNB-75
SW-620 = tested on: SW-620
T47D = tested on: T47D
TK-10 = tested on: TK-10
U-251 = tested on: U-251
UACC-257 = tested on: UACC-257
UO-31 = tested on: UO-31
786-0 = tested on: 786-0
HCT-116 = tested on: HCT-116
HCT-15 = tested on: HCT-15
OVCAR-4 = tested on: OVCAR-4
SF-295 = tested on: SF-295
SK-OV-3 = tested on: SK-OV-3
UACC-62 = tested on: UACC-62

C=CCn1c(=O)c(C)cn(COCCO)c1=O
GI50 (A498): > 10 µM (inactive) | GI50 (A549): > 100 µM (inactive) | GI50 (ACHN): > 100 µM (inactive) | GI50 (BT-549): > 100 µM (inactive) | GI50 (CAKI-1): > 100 µM (inactive) | GI50 (CCRF-CEM): > 100 µM (inactive) | GI50 (COLO 205): > 100 µM (inactive) | GI50 (DU-145): > 100 µM (inactive) | GI50 (EKVX): > 100 µM (inactive) | GI50 (HCC 2998): > 100 µM (inactive) | GI50 (HOP-62): > 100 µM (inactive) | GI50 (HOP-92): > 100 µM (inactive) | GI50 (HT-29): > 100 µM (inactive) | GI50 (Hs-578T): > 100 µM (inactive) | GI50 (IGROV-1): > 100 µM (inactive) | GI50 (K562): > 100 µM (inactive) | GI50 (KM12): > 100 µM (inactive) | GI50 (LOX IMVI): > 100 µM (inactive) | GI50 (M14): > 100 µM (inactive) | GI50 (MCF7): > 100 µM (inactive) | GI50 (MDA-MB-231): > 100 µM (inactive) | GI50 (MDA-MB-435): > 100 µM (inactive) | GI50 (MDA-N): > 100 µM (inactive) | GI50 (MOLT-4): > 100 µM (inactive) | GI50 (Malme-3M): > 100 µM (inactive) | GI50 (NCI-H226): > 100 µM (inactive) | GI50 (NCI-H23): > 100 µM (inactive) | GI50 (NCI-H460): > 100 µM (inactive) | GI50 (NCI-H522): > 100 µM (inactive) | GI50 (NCI/ADR-RES): > 100 µM (inactive) | GI50 (OVCAR-3): > 100 µM (inactive) | GI50 (OVCAR-5): > 100 µM (inactive) | GI50 (OVCAR-8): > 100 µM (inactive) | GI50 (PC-3): > 100 µM (inactive) | GI50 (RPMI-8226): > 100 µM (inactive) | GI50 (RXF 393): > 100 µM (inactive) | GI50 (SF-268): > 100 µM (inactive) | GI50 (SF-539): > 100 µM (inactive) | GI50 (SK-MEL-28): > 100 µM (inactive) | GI50 (SK-MEL-2): > 100 µM (inactive) | GI50 (SK-MEL-5): > 100 µM (inactive) | GI50 (SN12C): > 100 µM (inactive) | GI50 (SNB-19): > 100 µM (inactive) | GI50 (SNB-75): > 100 µM (inactive) | GI50 (SW-620): > 100 µM (inactive) | GI50 (T47D): > 100 µM (inactive) | GI50 (TK-10): > 100 µM (inactive) | GI50 (U-251): > 100 µM (inactive) | GI50 (UACC-257): > 100 µM (inactive) | GI50 (UO-31): > 100 µM (inactive)

COC1OC2COC(C)(C)OC2C2OC(C)(C)OC12 (configuration not stated)
GI50 (786-0): 18.6 µM (inactive) | GI50 (A498): 55.2 µM (inactive) | GI50 (A549): 85.1 µM (inactive) | GI50 (ACHN): 41.8 µM (inactive) | GI50 (BT-549): > 100 µM (inactive) | GI50 (CAKI-1): 14.6 µM (inactive) | GI50 (CCRF-CEM): 19 µM (inactive) | GI50 (COLO 205): 46.5 µM (inactive) | GI50 (DU-145): > 100 µM (inactive) | GI50 (EKVX): 25.7 µM (inactive) | GI50 (HCC 2998): > 100 µM (inactive) | GI50 (HCT-116): > 100 µM (inactive) | GI50 (HCT-15): > 100 µM | GI50 (HOP-62): 21.7 µM (inactive) | GI50 (HT-29): 60.5 µM (inactive) | GI50 (Hs-578T): 17 µM (inactive) | GI50 (IGROV-1): 18.7 µM (inactive) | GI50 (K562): 33.7 µM (inactive) | GI50 (KM12): > 100 µM (inactive) | GI50 (M14): > 100 µM (inactive) | GI50 (MCF7): 23.6 µM (inactive) | GI50 (MDA-MB-231): 16 µM (inactive) | GI50 (MDA-MB-435): > 100 µM (inactive) | GI50 (MDA-N): 69.5 µM (inactive) | GI50 (MOLT-4): 25.3 µM (inactive) | GI50 (Malme-3M): > 100 µM (inactive) | GI50 (NCI-H226): 23.8 µM (inactive) | GI50 (NCI-H23): 82.4 µM (inactive) | GI50 (NCI-H522): > 100 µM (inactive) | GI50 (NCI/ADR-RES): 63.8 µM (inactive) | GI50 (OVCAR-3): > 100 µM (inactive) | GI50 (OVCAR-4): 22.2 µM (inactive) | GI50 (OVCAR-5): > 100 µM (inactive) | GI50 (OVCAR-8): 55.7 µM (inactive) | GI50 (PC-3): 80.5 µM (inactive) | GI50 (RPMI-8226): 17 µM (inactive) | GI50 (RXF 393): 23.7 µM (inactive) | GI50 (SF-268): > 100 µM (inactive) | GI50 (SF-295): 22.6 µM (inactive) | GI50 (SK-MEL-28): > 100 µM (inactive) | GI50 (SK-MEL-2): > 100 µM (inactive) | GI50 (SK-MEL-5): > 100 µM (inactive) | GI50 (SK-OV-3): 78.2 µM (inactive) | GI50 (SN12C): 21 µM (inactive) | GI50 (SNB-19): 21.8 µM (inactive) | GI50 (SW-620): > 100 µM (inactive) | GI50 (T47D): > 100 µM (inactive) | GI50 (TK-10): 49.8 µM (inactive) | GI50 (U-251): 24.5 µM (inactive) | GI50 (UACC-257): 63.2 µM (inactive) | GI50 (UACC-62): 45.1 µM (inactive) | GI50 (UO-31): > 100 µM (inactive)
